Test results from PubChem BioAssay (NCI).
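Assay format: 96-well plates, 48-hour exposure. TGI marks complete inhibition of growth.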 Where a SMILES comes first, the peptide text is derived from it. The star is where a group is joined. Boc = CC(C)(C)OC(=O)*

How the values were obtained:
Experiment in all cases: inhibition of tumour cell growth, NCI panel, 48 h
[1] = tested on: SN12C renal
[2] = tested on: DU-145 prostate
[3] = tested on: SNB-19 CNS
[4] = tested on: HCC-2998 colon
[5] = tested on: COLO 205 colon
[6] = tested on: SK-MEL-5 melanoma
[7] = tested on: NCI-H460 lung
[8] = tested on: BT-549 breast
[9] = tested on: NCI-H226 lung
[10] = tested on: HCT-116 colon
[11] = tested on: MDA-MB-231 breast
[12] = tested on: MDA-N
[13] = tested on: 786-0 renal
[14] = tested on: RXF 393 renal
[15] = tested on: MALME-3M melanoma
[16] = tested on: OVCAR-8 ovarian
[17] = tested on: MDA-MB-435

SMILES | TGI [1] [µM] | TGI [2] [µM] | TGI [3] [µM] | TGI [4] [µM] | TGI [5] [µM] | TGI [6] [µM] | TGI [7] [µM] | TGI [8] [µM] | TGI [9] [µM] | TGI [10] [µM] | TGI [11] [µM] | TGI [12] [µM] | TGI [13] [µM] | TGI [14] [µM] | TGI [15] [µM] | TGI [16] [µM] | TGI [17] [µM]
CC(=O)OC12c3ccccc3C(c3ccccc31)C1C(=O)N(c3ccccc3O)C(=O)C12 (stereo not drawn) | > 100 | > 100 | > 100 | > 100 | > 100 | > 100 | > 100 | > 100 | > 100 | > 100 | > 100 | > 100 | > 100 | > 100 | > 100 | > 100 | 
CC(C)C1=CC23CCC4C(C)(C(=O)O)CCCC4(C)C2CC1C1C(=O)N(c2ccc(N4C(=O)C5C6CC7C8(C)CCCC(C)(C(=O)O)C8CCC7(C=C6C(C)C)C5C4=O)cc2)C(=O)C13 (stereo not drawn) | 17.5 | 16.6 | 18.8 | 16.4 | 10.8 | 19.2 |  |  | 13.7 | 11.8 | 21.5 | 16.1 | > 100 | 24.7 | 27.9 | 16.5 | 13
CC(=O)OCC(OC(C)=O)C(OC(C)=O)C(/C=N\Nc1nc2ccccc2c(=O)[nH]1)OC(C)=O (stereo not drawn) | > 100 | > 100 | > 100 |  | > 100 | > 100 | > 100 | > 100 | > 100 | > 100 | > 100 | > 100 | > 100 |  |  | > 100 | > 100
O=C(O)[C@@]1(Cc2ccc(O)cc2)C[C@@H]2Cc3ccccc3N2N1 | > 100 | > 100 | > 100 |  | > 100 | > 100 |  | > 100 | > 100 | > 100 | > 100 | > 100 | > 100 |  | > 100 | > 100 | > 100
CC1(C)OP(=O)(c2ccccc2)C=C1Br (stereo not drawn) | > 100 | > 100 | > 100 | > 100 | > 100 | > 100 | > 100 |  | > 100 | > 100 |  | > 100 | > 100 |  | > 100 | > 100 | > 100
CC(=O)OC12c3ccccc3C(c3ccccc31)C1C(=O)N(Nc3ccccc3)C(=O)C12 (stereo not drawn) | > 100 | > 100 | > 100 | > 100 | > 100 | > 100 | > 100 | > 100 | > 100 | > 100 | > 100 | > 100 | > 100 | > 100 | > 100 | > 100 | 
CN(NC(=O)c1ccc(Cl)cc1)C1=NCCCCN1 |  |  | > 100 | > 100 | > 100 | > 100 | > 100 | > 100 | > 100 | > 100 | > 100 | > 100 | > 100 | > 100 | > 100 | > 100 | > 100
COc1ccc(-c2c(C(C)=O)c(C)n(C3OC(COC(C)=O)C(OC(C)=O)C(OC(C)=O)C3OC(C)=O)c(=S)c2C#N)cc1 (stereo not drawn) | > 100 | > 100 | > 100 | > 100 | > 100 | > 100 | > 100 |  | > 100 | > 100 | > 100 | > 100 | > 100 | > 100 | > 100 | > 100 | > 100
CC1(C)OC[C@@H]([C@H](C=O)OCc2ccccc2)O1 | > 100 | > 100 | > 100 |  | > 100 | > 100 |  |  | > 100 | > 100 | > 100 | > 100 | > 100 |  | > 100 | > 100 | > 100
CCN(CC)CCC1CCCCN1CC(=O)N1c2ccccc2NC(=O)CC1C (stereo not drawn) | > 100 | > 100 | > 100 | > 100 | > 100 | > 100 | > 100 |  | > 100 | > 100 | > 100 | > 100 | > 100 | > 100 | > 100 | > 100 | > 100
CCOC(=O)c1sc2c(c1OC(=O)c1ccc(Cl)cc1Cl)c(=O)n(-c1ccccc1)c(=S)n2-c1ccccc1 | 22.6 | > 100 | > 100 | > 74.6 | 35.4 | 51.1 | > 55 |  | > 33.6 | > 78.5 | > 90.8 | 68.7 | > 100 | > 100 | 66.3 | > 100 | > 100
CC(=O)c1cc2sc3ccccc3c2[nH]1 | > 100 | > 100 | > 100 | > 100 | > 100 | > 100 | > 100 |  |  | > 100 | > 100 | > 100 | > 100 | > 100 | > 100 | > 100 | > 100
COc1ccc(NS(=O)(=O)c2ccc3ncn(NS(=O)(=O)c4ccc(I)cc4)c(=O)c3c2)cc1 | > 100 | > 100 | > 100 | > 100 | > 100 | > 100 | > 100 |  | > 100 | > 100 | > 100 | > 100 | > 100 | > 100 | > 100 | > 100 | > 100
O=C(CC(O)(C(F)(F)Cl)C(F)(F)Cl)CC(O)(C(F)(F)Cl)C(F)(F)Cl | > 10 | > 10 | > 10 | > 10 | 3.07 | 4.62 | > 10 |  | 4.66 | 3.68 | 5.29 | > 10 | > 10 | 6.08 | 4.36 | > 10 | 8.63
CCCCCCCCOP(=O)(O)OP(=O)(O)OCC1OC(n2ccc(N)nc2=O)C(O)C1O (stereo not drawn) | > 100 |  | > 100 | > 100 | > 100 | > 100 | > 100 | > 100 | > 100 | > 100 | > 100 | > 100 | > 100 | > 100 | > 100 | > 100 | > 100
CC1(C)CC(=O)c2c(nc3c(ccc4ccccc43)c2-c2ccc(NC(=O)CCCCCCCCC(=O)Nc3ccc(-c4c5c(nc6c4ccc4ccccc46)CC(C)(C)CC5=O)cc3)cc2)C1 | > 100 | > 100 | > 100 |  | > 100 | > 100 | > 100 |  | > 100 | > 100 | > 100 | > 100 | > 100 |  |  | > 100 | > 100
CCOC(=O)C1C(c2ccccc2)C2(C#N)C(=N)OC1(C)C2(C#N)C#N (stereo not drawn) |  | > 100 | > 100 | 27 | 31.5 | 25.1 |  |  | > 100 | 35.7 | 26.7 | 27.9 | 26.4 | 35.5 | 54.3 | 80.4 | 51.6
CNC(=O)CNC(=O)C(NC(=O)CNC(=O)C1CCCN1C(=O)C(C)NC(=O)C(NC(=O)OC(C)(C)C)C(C)C)C(C)C (stereo not drawn) (Boc-VAPGVG-NHMe; configuration not given here) | > 100 | > 100 | > 100 | > 100 | > 100 |  | > 100 |  |  | > 100 | > 100 | > 100 | > 100 |  | > 100 | > 100 | > 100
CN1CCN(Cn2nc(-c3ccccc3)n(/N=C/c3ccc(-c4ccc(Cl)cc4Cl)o3)c2=S)CC1 |  | 21 |  | 26.5 |  | 68.9 | > 100 |  | 53.2 | 14.8 | 29.9 | > 100 | 33.9 | 14 |  | 25.8 | 46.1
COc1cc(Br)cc2c1O[C@H]1C(=O)CC3CC21CCN3C (stereo partly drawn) |  |  | > 100 | > 100 | > 100 | > 100 |  | > 100 |  | > 100 |  | > 100 | > 100 |  | > 100 | 71.7 | > 100
N#Cc1nc(/C=C/c2cccs2)oc1N | > 100 | > 100 | > 100 |  |  | > 100 |  |  |  | > 100 | > 100 | > 100 | > 100 | > 100 |  | > 100 | > 100
CC[C@H](C)[C@H](NC(=O)[C@H](Cc1ccc(O)cc1)NCC(F)(F)F)C(=O)OC(C)(C)C | 17.3 |  | 15.8 | 15.8 | 18.4 | 15.3 | 14.1 | 34.7 | 18.8 | 16.6 | 15.5 | 17.7 | 16.1 | 17.7 | 22.1 | 29.8 | 14.8
